Results: PubChem BioAssay AID330 (DTP/NCI, 2004)
“And” between values parts separate entries of the source, which are not always exact repeats. Equal values may be shown once. Toxic doses and inconclusive results are not listed. How the source made its calls: active means survival T/C of 150% or more; inactive means T/C below 125% in these data.

Tested on: P388 leukemia ip, CD2F1 mice, survival T/C
Test: NCI In Vivo Anticancer Drug Screen. Data for tumor model P388 Leukemia (intraperitoneal) in CD2F1 (CDF1) mice
Details: endpoint: median survival time, higher = longer survival
Outline: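 Mice carrying the transplanted tumor received test compound or vehicle. Survival was recorded in each group, and the value is the treated-group measurement divided by that of the vehicle-treated control group.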

[1] = dose: 60.0 mg/kg/injection, schedule: Q01DX005 (ip), vehicle: Klucel + Tween-80
[2] = dose: 50.0 mg/kg/injection, schedule: Q01DX009 (ip), vehicle: Klucel (hydroxypropylcellulose) (HPC)
[3] = dose: 60.0 mg/kg/injection, schedule: Q01DX005 (ip), vehicle: saline with Tween-80
[4] = dose: 120.0 mg/kg/injection, schedule: Q01DX005 (ip), vehicle: saline with Tween-80
[5] = dose: 240.0 mg/kg/injection, schedule: Q01DX005 (ip), vehicle: saline with Tween-80
[6] = dose: 50.0 mg/kg/injection, schedule: Q01DX005 (ip), vehicle: Klucel (hydroxypropylcellulose) (HPC)
[7] = dose: 100.0 mg/kg/injection, schedule: Q01DX005 (ip), vehicle: Klucel (hydroxypropylcellulose) (HPC)
[8] = dose: 200.0 mg/kg/injection, schedule: Q01DX005 (ip), vehicle: Klucel (hydroxypropylcellulose) (HPC)
[9] = dose: 25.0 mg/kg/injection, schedule: Q01DX009 (ip), vehicle: saline with Tween-80
[10] = dose: 50.0 mg/kg/injection, schedule: Q01DX009 (ip), vehicle: saline with Tween-80
[11] = dose: 100.0 mg/kg/injection, schedule: Q01DX009 (ip), vehicle: saline with Tween-80
[12] = dose: 200.0 mg/kg/injection, schedule: Q01DX009 (ip), vehicle: saline with Tween-80
[13] = dose: 100.0 mg/kg/injection, schedule: Q01DX009 (ip), vehicle: Klucel (hydroxypropylcellulose) (HPC)
[14] = dose: 200.0 mg/kg/injection, schedule: Q01DX009 (ip), vehicle: Klucel (hydroxypropylcellulose) (HPC)

Measured: T/C

O=C(O)CCc1c(-c2ccccc2)[nH]c2ccccc12
inactive: [1] 100 % of control | dose: 120.0 mg/kg/injection, schedule: Q01DX005 (ip), vehicle: Klucel + Tween-80 100 % of control | dose: 240.0 mg/kg/injection, schedule: Q01DX005 (ip), vehicle: Klucel + Tween-80 100 % of control

CCOC(=O)NC(=S)c1ccc[nH]1
inactive: dose: 12.5 mg/kg/injection, schedule: Q01DX009 (ip), vehicle: Klucel (hydroxypropylcellulose) (HPC) 95 % of control | dose: 25.0 mg/kg/injection, schedule: Q01DX009 (ip), vehicle: Klucel (hydroxypropylcellulose) (HPC) 87 % of control | [2] 95 % of control and 98 % of control

Nc1nnc(CCC(=O)Nc2ccccc2Cl)o1
inactive: [3] 98 % of control | [4] 101 % of control | [5] 97 % of control

CCOc1c(N=Nc2ccccc2OC)c(C)nn1C(=S)SC
inactive: dose: 15.0 mg/kg/injection, schedule: Q01DX005 (ip), vehicle: Klucel + Tween-80 92 % of control | dose: 30.0 mg/kg/injection, schedule: Q01DX005 (ip), vehicle: Klucel + Tween-80 92 % of control | [1] 90 % of control

C=CCOc1ccccc1/C=N/[N+](C)(C)C
inactive: dose: 12.5 mg/kg/injection, schedule: Q01DX009 (ip), vehicle: saline 100 % of control | dose: 25.0 mg/kg/injection, schedule: Q01DX009 (ip), vehicle: saline 110 % of control

CC(C(=O)O)c1cccc2c(=O)cc(-c3ccccc3)oc12 (centres undefined)
inactive: [6] 100 % of control | [7] 87 % of control | [8] 109 % of control

CN(C)/C=N\c1ncnc2c1ncn2C1OC(CO)C(O)C1O (centres undefined)
inactive: dose: 6.25 mg/kg/injection, schedule: Q01DX009 (ip), vehicle: saline with Tween-80 104 % of control | dose: 12.5 mg/kg/injection, schedule: Q01DX009 (ip), vehicle: saline with Tween-80 98 % of control | [9] 102 % of control | [10] 99 % of control | [11] 95 % of control

CS(=O)(=O)N1OC1c1ccccc1 (centres undefined)
inactive: dose: 60.0 mg/kg/injection, schedule: Q01DX005 (ip), vehicle: Klucel (hydroxypropylcellulose) (HPC) 95 % of control | dose: 120.0 mg/kg/injection, schedule: Q01DX005 (ip), vehicle: Klucel (hydroxypropylcellulose) (HPC) 100 % of control

NC(=O)c1cccnc1
inactive: [10] 106 % of control | [11] 110 % of control | [12] 97 % of control | dose: 250.0 mg/kg/injection, schedule: Q01DX009 (sc), vehicle: saline 102 % of control | dose: 500.0 mg/kg/injection, schedule: Q01DX009 (sc), vehicle: saline 105 % of control

Oc1c(CN2CCOCC2)cc(CN2CCOCC2)cc1CN1CCOCC1
inactive: [10] 94 % of control | [11] 103 % of control | [12] 100 % of control | dose: 400.0 mg/kg/injection, schedule: Q01DX009 (ip), vehicle: saline with Tween-80 100 % of control

COc1cc2oc(=O)cc(C)c2cc1N
inactive: dose: 50.0 mg/kg/injection, schedule: Q04DX002 (ip), vehicle: suspension in saline 109 % of control | dose: 100.0 mg/kg/injection, schedule: Q04DX002 (ip), vehicle: suspension in saline 99 % of control | dose: 200.0 mg/kg/injection, schedule: Q04DX002 (ip), vehicle: suspension in saline 106 % of control

CN1C(=O)C(=C2C=C(c3ccccc3)C(C#N)(c3ccccc3)C(c3ccccc3)=C2)C(=O)N(C)C1=O (centres undefined)
inactive: [6] 106 % of control | [7] 107 % of control | [8] 101 % of control

Cc1cc(O)c2c(c1)C(=O)C(c1c(O)c3c(C)cccc3oc1=O)=C(c1c(O)c3c(C)cccc3oc1=O)C2=O
inactive: dose: 14.0 mg/kg/injection, schedule: Q01DX005 (ip), vehicle: Klucel (hydroxypropylcellulose) (HPC) 92 % of control | dose: 28.0 mg/kg/injection, schedule: Q01DX005 (ip), vehicle: Klucel (hydroxypropylcellulose) (HPC) 91 % of control | dose: 56.0 mg/kg/injection, schedule: Q01DX005 (ip), vehicle: Klucel (hydroxypropylcellulose) (HPC) 89 % of control | dose: 112.0 mg/kg/injection, schedule: Q01DX005 (ip), vehicle: Klucel (hydroxypropylcellulose) (HPC) 89 % of control

CC/C(=N/NS(=O)(=O)c1ccc(C)cc1)c1ccc(O)cc1
inactive: dose: 100.0 mg/kg/injection, schedule: Q04DX003 (ip), vehicle: saline 107 % of control | dose: 200.0 mg/kg/injection, schedule: Q04DX003 (ip), vehicle: saline 100 % of control | dose: 400.0 mg/kg/injection, schedule: Q04DX003 (ip), vehicle: saline 98 % of control

OC1CC2(CC3(C1)SCCS3)SCCS2 (centres undefined)
inactive: dose: 100.0 mg/kg/injection, schedule: Q01DX001 (ip), vehicle: Klucel (hydroxypropylcellulose) (HPC) 102 % of control | dose: 200.0 mg/kg/injection, schedule: Q01DX001 (ip), vehicle: Klucel (hydroxypropylcellulose) (HPC) 99 % of control | dose: 400.0 mg/kg/injection, schedule: Q01DX001 (ip), vehicle: Klucel (hydroxypropylcellulose) (HPC) 106 % of control

O=C(Cc1ccccc1)c1ccc(F)cc1
inactive: [2] 98 % of control | [13] 100 % of control | [14] 99 % of control

CCCCn1ccc(=O)[nH]c1=O
inactive: [6] 93 % of control | [7] 99 % of control | [8] 101 % of control

COc1cc(C2C3=C(CCCC3=O)Oc3cc4c(cc32)OCO4)cc(OC)c1OC (centres undefined)
inactive: [3] 91 % of control | [4] 90 % of control | [5] 98 % of control

CCOC(=O)CC1NCCc2c1[nH]c1ccccc21 (centres undefined)
inactive: dose: 6.25 mg/kg/injection, schedule: Q01DX001 (ip), vehicle: saline sonified 90 % of control | dose: 12.5 mg/kg/injection, schedule: Q01DX001 (ip), vehicle: saline sonified 90 % of control | dose: 25.0 mg/kg/injection, schedule: Q01DX001 (ip), vehicle: saline sonified 100 % of control

C[N+](C)(CCCCCCOc1c(Br)cc(Br)cc1Br)Cc1ccc(Br)o1
inactive: dose: 1.56 mg/kg/injection, schedule: Q01DX009 (ip), vehicle: Klucel (hydroxypropylcellulose) (HPC) 104 % of control | dose: 3.12 mg/kg/injection, schedule: Q01DX009 (ip), vehicle: Klucel (hydroxypropylcellulose) (HPC) 113 % of control | dose: 6.25 mg/kg/injection, schedule: Q01DX009 (ip), vehicle: Klucel (hydroxypropylcellulose) (HPC) 93 % of control

O=C(N=C=S)c1ccc(Cl)c(Cl)c1
inactive: [9] 94 % of control | [10] 95 % of control | [11] 95 % of control | [12] 103 % of control

O=C1C=CC(=O)C(C2OC(=O)C(Cl)=C2Cl)=C1 (centres undefined)
inactive: dose: 50.0 mg/kg/injection, schedule: Q01DX005 (ip), vehicle: saline with Tween-80 110 % of control | dose: 100.0 mg/kg/injection, schedule: Q01DX005 (ip), vehicle: saline with Tween-80 104 % of control

CCOC(=O)CCc1ccc2c(c1)OCO2
inactive: dose: 100.0 mg/kg/injection, schedule: Q01DX009 (ip), vehicle: saline 100 % of control | dose: 100.0 mg/kg/injection, schedule: Q04DX003 (ip), vehicle: saline with Tween-80 91 % of control | dose: 200.0 mg/kg/injection, schedule: Q01DX009 (ip), vehicle: saline 104 % of control | dose: 200.0 mg/kg/injection, schedule: Q04DX003 (ip), vehicle: saline with Tween-80 100 % of control | dose: 400.0 mg/kg/injection, schedule: Q01DX009 (ip), vehicle: saline 113 % of control | dose: 400.0 mg/kg/injection, schedule: Q04DX003 (ip), vehicle: saline with Tween-80 91 % of control

COc1cc(/C=C2\C(=O)C3CCN2CC3)cc(OC)c1OC
inactive: [2] 96 % of control | [13] 93 % of control | [14] 114 % of control

CC1=CC(C)=NC2NNC(=O)C12 (centres undefined)
inactive: [3] 110 % of control | [4] 109 % of control | [5] 105 % of control

Brc1cc2c(cc1C=Nc1ccc(OCc3ccccc3)cc1)OCO2
inactive: dose: 25.0 mg/kg/injection, schedule: Q01DX009 (ip), vehicle: other 98 % of control | dose: 50.0 mg/kg/injection, schedule: Q01DX009 (ip), vehicle: other 103 % of control | dose: 100.0 mg/kg/injection, schedule: Q01DX009 (ip), vehicle: other 97 % of control | dose: 200.0 mg/kg/injection, schedule: Q01DX009 (ip), vehicle: other 95 % of control | dose: 400.0 mg/kg/injection, schedule: Q01DX009 (ip), vehicle: other 86 % of control

N=C(N)Sc1cc(O)ccc1O
inactive: dose: 75.0 mg/kg/injection, schedule: Q01DX009 (ip), vehicle: saline with Tween-80 118 % of control | dose: 150.0 mg/kg/injection, schedule: Q01DX009 (ip), vehicle: saline with Tween-80 113 % of control
